Source: US20240109912A1, “TRICYCLIC PYRIMIDINES AS CYCLIN-DEPENDENT KINASE 7 (CDK7) INHIBITORS” (JANSSEN PHARMACEUTICA NV, priority 2020, published 2024)
Values joined by “and” are separate entries in the source; they are usually repeats but may differ in a detail not shown here. Identical values can stand only once. Like-named read-outs stand apart in the source and are kept apart here.

Tests used:
[1] = system: RNA polymerase II Serine 5 phosphorylation in A549 cells overexpressing CDK7 mutant (C312S); assay: Imaging-based cellular RNA PolII Ser5 phosphorylation assay in A549 cells overexpressing CDK7-mutant (C312S); assay type: cell-based, human; conditions: for IC50: Homo sapiens, A549, A549 cells overexpressing CDK7 mutant (C312S), read-out: CDK7_ A549 mutant hCDK7(pIC50) (converted)
How it was run: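 A stably transduced A549 pool overexpressing CDK7 C312S, a mutant that blocks covalent binding at Cys312, while retaining endogenous wild-type CDK7 was used. Ser5 phosphorylation was measured by imaging, and IC50 values were derived.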

[2] = system: RNA polymerase II Serine 5 phosphorylation (CDK7) in A549 cells
[3] = target: CDK7/cyclinH/MAT1 trimeric complex (Homo sapiens (Human), UniProt P50613); assay: In vitro CDK7 assay, potency of irreversible covalent inhibitors (kinact/KI)
[4] = CDK7 (20 nM enz.) (KI, μM), 20 nM enz.
[5] = read-out: CDK7 (20 nM enz.) (kinact, s^−1), 20 nM enz.
[6] = read-out: CDK7 (20 nM enz.) (kinact/ KI, M^−1*s^−1), 20 nM enz.
[7] = read-out: CDK7 (20 nM enz.) (kobs/[I], M^−1*s^−1), 20 nM enz.
[8] = read-out: CDK7 (kinact, s^−1), Table B
[9] = read-out: CDK7 (kinact/KI, M^−1*s^−1), Table B

Sequence of CDK7/cyclinH/MAT1 trimeric complex (P50613 whole entry): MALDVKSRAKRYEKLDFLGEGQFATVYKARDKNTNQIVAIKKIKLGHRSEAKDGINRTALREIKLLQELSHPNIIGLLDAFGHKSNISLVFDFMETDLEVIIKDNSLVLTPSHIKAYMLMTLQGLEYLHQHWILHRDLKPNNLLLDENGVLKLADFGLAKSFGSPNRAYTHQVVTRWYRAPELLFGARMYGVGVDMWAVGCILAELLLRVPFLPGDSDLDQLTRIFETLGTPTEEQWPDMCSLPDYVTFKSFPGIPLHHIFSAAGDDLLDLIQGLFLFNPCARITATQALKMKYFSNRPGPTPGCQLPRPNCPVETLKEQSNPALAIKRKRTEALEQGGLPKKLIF
Sequence of CDK7/cyclinH/MAT1 trimeric complex (P51946 whole entry partner): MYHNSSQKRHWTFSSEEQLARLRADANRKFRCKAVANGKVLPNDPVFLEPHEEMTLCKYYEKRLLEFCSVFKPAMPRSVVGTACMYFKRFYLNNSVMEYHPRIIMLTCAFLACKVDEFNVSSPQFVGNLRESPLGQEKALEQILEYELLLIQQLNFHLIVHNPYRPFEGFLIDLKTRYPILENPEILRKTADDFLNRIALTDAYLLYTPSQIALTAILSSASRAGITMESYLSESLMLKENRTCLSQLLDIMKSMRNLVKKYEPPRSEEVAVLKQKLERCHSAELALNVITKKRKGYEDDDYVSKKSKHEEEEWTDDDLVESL
Sequence of CDK7/cyclinH/MAT1 trimeric complex (P51948 whole entry partner): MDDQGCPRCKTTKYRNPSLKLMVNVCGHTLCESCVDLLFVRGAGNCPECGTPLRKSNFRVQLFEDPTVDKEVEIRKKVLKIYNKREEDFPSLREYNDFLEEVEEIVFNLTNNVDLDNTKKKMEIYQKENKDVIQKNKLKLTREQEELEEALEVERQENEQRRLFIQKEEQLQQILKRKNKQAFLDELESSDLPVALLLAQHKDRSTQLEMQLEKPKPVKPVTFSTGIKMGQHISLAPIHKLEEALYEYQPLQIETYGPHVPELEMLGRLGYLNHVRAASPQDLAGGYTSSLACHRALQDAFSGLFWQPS

| IC50 [1] [nM] | melting point [°C] | IC50 [2] | Ki [3, 4] | kinact [3, 5] [s⁻¹] | kinact/KI [3, 6] [M⁻¹ s⁻¹] | kinact/KI [3, 7] [M⁻¹ s⁻¹] | Ki ([3]; CDK7 (KI(μM)), Table B) | kinact [3, 8] [s⁻¹] | kinact/KI [3, 9] [M⁻¹ s⁻¹] | CDK7 (kinact, s^−1) ([3]; Table B) [s⁻¹] | CDK7 (kinact/KI, M^−1*s^−1) ([3]; Table B) [M⁻¹ s⁻¹] | Compound | CDK7 (20 nM enz.) (kinact/ KI, M^−1*s^−1) ([3]; 20 nM enz.) | CDK7_ A549 mutant hCDK7(pIC50) ([1]; A549 cells overexpressing CDK7 mutant (C312S)) | CDK7 (20 nM enz.) (kinact, s^−1) ([3]; 20 nM enz.) |
| --- | --- | --- | --- | --- | --- | --- | --- | --- | --- | --- | --- | --- | --- | --- | --- |
| > 10000 | 151 | 457 nM | 0.192 µM | 5.05e-05 | 263 | – | – | – | – | – | – | C=CC(=O)N1CCC(N2CC(c3cc(C)c4c(c3)Nc3ncnc(N5CCOCC5)c3CO4)C2)C1 (stereo not shown) [compound 16] | – | – | – |
| > 10000 | > 300 | ~12.6 nM | 0.0249 µM | 4.14e-05 | 1660 | 1280 | – | – | – | – | – | C=CC(=O)N1CC(N2CCC(c3cc(C)c4c(c3)Nc3ncnc(N5CCS(=O)(=O)CC5)c3[C@H](C)O4)CC2)C1 [compound 32] | – | – | – |
| > 10000 | 213 | 1000 nM | – | – | – | – | 0.258 µM | 0.000186 | 721 | – | – | C=CC(=O)N1CC(N2CCC(c3ccc4c(c3)Nc3ncnc(N5CCOCC5)c3CO4)CC2C)C1 (stereo not shown) [compound 34] | – | – | – |
| > 10000 | 175 | ~7940 nM | – | – | – | – | 2.05 µM | 8.56e-05 | 41.8 | – | – | C=CC(=O)N1CC(N2CCCC(c3ccc4c(c3)Nc3ncnc(N5CCOCC5)c3CO4)C2)C1 (stereo not shown) [compound 35] | – | – | – |
| > 10000 | 232 | 741 nM and 479 nM | – | – | – | – | 0.0803 µM and 0.233 µM | 8.19e-05 | 1020 | 0.0001256 | 539.8 | C=CC(=O)N1CC(N2CC[C@@H](c3ccc4c(c3)Nc3ncnc(N5CCOCC5)c3CO4)[C@@H](C)C2)C1 [compound 36] | – | – | – |
| > 10000 | 243 | 2240 nM | 0.61 µM | 5.09e-05 | 83.4 | – | – | – | – | – | – | C=CC(=O)N1CC(N2CCC(c3ccc4c(c3)Nc3ncnc(C5=CCOCC5)c3CO4)CC2)C1 [compound 39] | – | – | – |
| > 10000 | > 300 | 372 nM | 0.0282 µM | 4.14e-05 | 1460 | – | – | – | – | – | – | C=CC(=O)N1CC(N2CCC(c3cc(Cl)c4c(c3)Nc3ncnc(N5CCOCC5)c3CO4)CC2)C1 [compound 42] | – | – | – |
| > 10000 | 296 | 132 nM | – | – | – | 1490 | – | – | – | – | – | C=CC(=O)N1CC(N2CCC(c3cc(Cl)c4c(c3)Nc3ncnc(N5CCS(=O)(=O)CC5)c3CO4)CC2)C1 [compound 43] | – | – | – |
| > 10000 | 178 | 1170 nM | 0.67 µM | 4.31e-05 | 64.4 | – | – | – | – | – | – | C=CC(=O)N1CCC(N2CC(c3cc4c(c(C(F)(F)F)c3)OCc3c(ncnc3-c3cnn(C)c3)N4)C2)CC1 [compound 44] | – | – | – |
| > 10000 | 158 | 427 nM | 0.219 µM | 4.44e-05 | 203 | – | – | – | – | – | – | C=CC(=O)N1CCC(N2CC(c3cc4c(c(C(F)(F)F)c3)OCc3c(ncnc3N3CCOCC3)N4)C2)CC1 [compound 45] | – | – | – |
| > 10000 | 220 | 776 nM | 0.232 µM | 5.9e-05 | 254 | – | – | – | – | – | – | C=CC(=O)N1CC(N2CCC(c3cc4c(cn3)OCc3c(ncnc3N3CCOCC3)N4)CC2)C1 [compound 48] | – | – | – |
| > 10000 | 257 | 288 nM | 0.0451 µM | 5.57e-05 | 1240 | – | – | – | – | – | – | C=CC(=O)N1CC(N2CCC(c3cc4c(c(C)n3)OCc3c(ncnc3N3CCS(=O)(=O)CC3)N4)CC2)C1 [compound 58] | – | – | – |
| > 10000 | 259 | 151 nM | 0.0715 µM | 5.06e-05 | 708 | – | – | – | – | – | – | C=CC(=O)N1CCC(N2CCC(c3cc4c(c(C)n3)OCc3c(ncnc3N3CCS(=O)(=O)CC3)N4)CC2)CC1 [compound 59] | – | – | – |
| > 10000 | > 300 | 2000 nM | 0.83 µM | 5.1e-05 | 61.4 | – | – | – | – | – | – | C=CC(=O)N1CC(N2CCC(c3cc4c(cc3C#N)OCc3c(ncnc3N3CCOCC3)N4)CC2)C1 [compound 61] | – | – | – |
| > 10000 | 190 | 1700 nM | 0.174 µM | 3.22e-05 | 186 | – | – | – | – | – | – | C=CC(=O)N1CCC(N2CC(c3cc4c(c(C)n3)OCc3c(ncnc3N3CCS(=O)(=O)CC3)N4)C2)CC1 [compound 63] | – | – | – |
| > 10000 | > 300 | 7240 nM | 0.427 µM | 4.81e-05 | 113 | – | – | – | – | – | – | C=CC(=O)N1CC(N2CC(c3cc4c(c(C)n3)OCc3c(ncnc3N3CCS(=O)(=O)CC3)N4)C2)C1 [compound 64] | – | – | – |
| > 10000 | 118 | 933 nM | 0.528 µM | 4.52e-05 | 85.5 | – | – | – | – | – | – | C=CC(=O)N1CC(N2CCC(c3ccc4c(c3)Nc3ncnc(N5CCOCC5)c3C(CC)O4)CC2)C1 (stereo not shown) [compound 66] | – | – | – |
| > 10000 | 256 | 1350 nM | 3.2 µM | 7.12e-05 | 22.2 | – | – | – | – | – | – | C=CC(=O)N1CC(N2CCN(c3cc4c(cn3)OCc3c(ncnc3N3CCOCC3)N4)CC2)C1 [compound 71] | – | – | – |
| > 10000 | > 300 | 4070 nM | 0.172 µM | 3.83e-05 | 223 | – | – | – | – | – | – | C=CC(=O)N1CCC(N2CC(c3cc4c(c(C)n3)OCc3c(ncnc3N3CCS(=O)(=O)CC3)N4)C2)C1 (stereo not shown) [compound 77] | – | – | – |
| 7760 | 200 | 81.3 nM | 0.234 µM | 4.3e-05 | 184 | – | – | – | – | – | – | C=CC(=O)N1CCC(N2CC(c3cc(C)c4c(c3)Nc3ncnc(N5CCS(=O)(=O)CC5)c3CO4)C2)CC1 [compound 87] | – | – | – |
| 8130 | 256 | 34.7 nM | 0.0485 µM | 4.48e-05 | 923 | – | – | – | – | – | – | C=CC(=O)N1CCC(N2CCC(c3cc(C)c4c(c3)Nc3ncnc(N5CCS(=O)(=O)CC5)c3CO4)CC2)CC1 [compound 88] | – | – | – |
| > 10000 | 203 | 955 nM | 0.128 µM | 5.45e-05 | 425 | – | – | – | – | – | – | C=CC(=O)N1CCC(N2CCN(c3cc(C)c4c(c3)Nc3ncnc(N5CCS(=O)(=O)CC5)c3CO4)CC2)CC1 [compound 89] | – | – | – |
| > 10000 | 267 | 110 nM | 0.0406 µM | 5.75e-05 | 1420 | – | – | – | – | – | – | C=CC(=O)N1CCN(C2CCN(c3cc(C)c4c(c3)Nc3ncnc(N5CCS(=O)(=O)CC5)c3CO4)CC2)CC1 [compound 91] | – | – | – |
| > 10000 | 180 | 3890 nM | 0.96 µM | 5.21e-05 | 54.3 | – | – | – | – | – | – | C=CC(=O)N1CC(N2CCC(c3cc(C)c4c(c3)Nc3ncnc(N5CC(CO)C5)c3CO4)CC2)C1 [compound 107] | – | – | – |
| 8510 | 180 | 91.2 nM | 0.173 µM | 2.65e-05 | 153 | – | – | – | – | – | – | CC#CC(=O)N1CCC(N2CC(c3cc(C)c4c(c3)Nc3ncnc(N5CCS(=O)(=O)CC5)c3CO4)C2)CC1 [compound 133] | – | – | – |
| > 10000 | 240 | 257 nM | 0.0874 µM | 5.36e-05 | 613 | – | – | – | – | – | – | CC#CC(=O)N1CCC(N2CCN(c3cc(C)c4c(c3)Nc3ncnc(N5CCS(=O)(=O)CC5)c3CO4)CC2)CC1 [compound 136] | – | – | – |
| > 10000 | 267 | 166 nM | 0.254 µM | 9.43e-05 | 372 | – | – | – | – | – | – | CC#CC(=O)N1CCN(C2CCN(c3cc(C)c4c(c3)Nc3ncnc(N5CCS(=O)(=O)CC5)c3CO4)CC2)CC1 [compound 137] | – | – | – |
| > 10000 | 189 | 115 nM | 0.16 µM | 5.91e-05 | 370 | – | – | – | – | – | – | CC#CC(=O)N1CC(N2CCC(c3cc(C)c4c(c3)Nc3ncnc(N5CCS(=O)(=O)CC5)c3CO4)CC2)C1 [compound 151] | – | – | – |

| Compound | IC50 [1] [nM] | melting point [°C] | IC50 [2] | Ki [3, 4] | kinact [3, 5] [s⁻¹] | kinact/KI [3, 6] [M⁻¹ s⁻¹] | kinact/KI [3, 7] [M⁻¹ s⁻¹] | Ki ([3]; CDK7 (KI(μM)), Table B) | kinact [3, 8] [s⁻¹] | kinact/KI [3, 9] [M⁻¹ s⁻¹] | CDK7 (kinact, s^−1) ([3]; Table B) [s⁻¹] | CDK7 (kinact/KI, M^−1*s^−1) ([3]; Table B) [M⁻¹ s⁻¹] | CDK7 (20 nM enz.) (kinact/ KI, M^−1*s^−1) ([3]; 20 nM enz.) | CDK7_ A549 mutant hCDK7(pIC50) ([1]; A549 cells overexpressing CDK7 mutant (C312S)) | CDK7 (20 nM enz.) (kinact, s^−1) ([3]; 20 nM enz.) |
| --- | --- | --- | --- | --- | --- | --- | --- | --- | --- | --- | --- | --- | --- | --- | --- |
| C=CC(=O)N1CC(N2C3CCC2CC(c2ccc4c(c2)Nc2ncnc(N5CCOCC5)c2CO4)C3)C1 (stereo not shown) [compound 40] | > 10000 | 212 | 437 nM | 0.16 µM | 5.56e-05 | – | – | – | – | – | – | – | 347 M⁻¹ s⁻¹ | – | – |
| C=CC(=O)N1CC(N2C3CCC2CC(c2ccc4c(c2)Nc2ncnc(N5CCOCC5)c2CO4)C3)C1 (stereo not shown) [compound 41] | – | 208 | 1200 nM and 1320 nM | 0.991 µM and 0.898 µM | – | – | – | – | – | – | – | – | 56 M⁻¹ s⁻¹ and 58.5 M⁻¹ s⁻¹ | <5 | 5.55e-05 s⁻¹ and 5.25e-05 s⁻¹ |
